Results on four molecules are retold here after patent US6514978B2, “Thromboresistant materials incorporating pyrazinone protease inhibitors” (3-Dimensional Pharmaceuticals, Inc., priority 1998, dated 2003).

This experiment has as its target T1, human α-thrombin (Homo sapiens, UniProt P00734).
T1 construct: Purified human α-thrombin; purchased Enzyme Research Laboratories (South Bend, Ind.)
Description: In vitro inhibition of purified enzymes: Ki determination, thrombin (hydrolysis of N-succinyl-Ala-Ala-Pro-Arg-p-nitroanilide). It is filed as biochemical. The note with it: purified human α-thrombin 0.5 nM, 50 mM HEPES, 200 mM NaCl, pH 7.5, 37° C., 4.3% DMSO. An excerpt:
Reagents: All buffer salts were obtained from Sigma Chemical Company (St. Louis, Mo.), and were of the highest purity avalable. The enzyme substrates, N-benzoyl-Phe—Val—Arg-p-nitroanilide (Sigma B7632), N-benzoyl-Ile—Glu—Gly—Arg-p-nitroanilide hydrochloride (Sigma B2291), N-p-Tosyl-Gly—Pro—Lys-p-nitroanilide (Sigma T6140), N-succinyl-Ala—Ala—Pro—Phe-p-nitroanilide (Sigma S7388) and N-CBZ-Val—Gly—Arg-p-nitroanilide (Sigma C7271) were obtained from Sigma.
Human α-thrombin, human factor Xa and human plasmin were obtained from Enzyme Research Laboratories (South Bend, Ind.). Bovine α-chymotrypsin (Sigma C4129), bovine trypsin (Sigma T8642) and human kidney cell urokinase (Sigma U5004) were obtained from Sigma. Human leukocyte elastase was obtained from Elastin Products (Pacific, Mo.).
Ki Determinations: All assays are based on the ability of the test compound to inhibit the enzyme catalyzed hydrolysis of a peptide-p-nitroanililide substrate. […] The final concentrations for each of the substrates is listed below. […] Dilutions are prepared in DMSO yielding 8 final concentrations encompassing a 200 fold concentration range. Enzyme solutions are prepared at the concentrations listed below in assay buffer.
Data corresponding to less than 10% of the total substrate hydrolysis were used in the calculations. The ratio of the velocity (rate of change in absorbance as a function of time) for a sample containing no test compound is divided by the velocity of a sample containing test compound, and is plotted as a function of test compound concentration. The data are fit to a linear regression, and the value of the slope of the line calculated. The inverse of the slope is the experimentally determined K value.
Thrombin: Thrombin activity was assessed as the ability to hydrolyze the substrate N-succinyl-Ala—Ala—Pro—Arg-p-nitroanilide. […] Final DMSO concentration was 4.3%. […] Final reagent concentrations were: [thrombin]=0.5 nM, [substrate N-succinyl-Ala—Ala—Pro—Arg-p-nitroanilide]=32 mM.

Molecules are shown by their SMILES. Structures can show the parent of a compound that is named as a salt.

In turn, `Cc1c(Cl)nc(NCC(c2ccccc2)c2ccccc2)c(=O)n1CC(=O)NCCONC(=N)N` [Example 4, 1-{N-[2-(amidinoaminooxy)ethyl]amino}carbonylmethyl-5-chloro-6-methyl-3-(2,2-diphenylethylamino)-pyrazinone trifluoroacetate] showed an inhibition constant (Ki) of 85 nM.

As for `Cc1c(Cl)nc(NCCc2ccccc2)c(=O)n1CC(=O)NCCONC(=N)N` [Example 2, 1-{N-[2-(amidinoaminooxy)ethyl]amino}carbonylmethyl-5-chloro-6-methyl-3-(phenethylamino)-pyrazinone trifluoroacetate], the inhibition constant (Ki) was 330 nM.

The molecule `Cc1cnc(NCCc2ccccc2)c(=O)n1CC(=O)NCCONC(=N)N` [Example 1, 1-{N-[2-(amidinoaminooxy)ethyl]amino}carbonylmethyl-6-methyl-3-(phenethylamino)-pyrazinone trifluoroacetate] had a Ki of 46 nM.

With `Cc1ccc(CCNc2ncc(C)n(CC(=O)NCCONC(=N)N)c2=O)cc1` [Example 5, 1-{N-[2-(amidinoaminooxy)ethyl]amino}carbonylmethyl-6-methyl-3-(4-methylphenethylamino)-pyrazinone trifluoroacetate], the affinity, expressed as Ki, was 20 nM.

A word on the Ki: it is the dissociation constant of the complex between target and ligand, obtained from inhibition or displacement. Read a low Ki as a stronger hold on the target.
